From patent US8916604B2, “Compositions and methods for epigenetic modification of nucleic acid sequences” (Rutgers, The State University of New Jersey, priority 2011, dated 2014) come the findings set out here.

Like-named read-outs stand apart in the source and are kept apart here.

The test system of data set [1] is HepG2-C8 cells. Briefly: MTS cell viability assay. Particulars: Homo sapiens. In kind it is cell-based, human. The method, then:
The stably transfected single clone HepG2-ARE-C8 (HepG2-C8) cell line has been established previously in our laboratory using the […]-luciferase reporter gene. The cells were maintained in Dulbecco's modified Eagle medium supplemented with 10% fetal bovine serum (FBS), 1.17 g/l sodium bicarbonate, and 100 unit/ml penicillin, 100 μg/ml streptomycin at 37° C. in a humidified incubator with 5% CO2. […] MTS] (Promega, Madison, Wis.). […] The cells were then treated with MTS for 1 h at 37° C. Absorbance of the formazan product was read at 490 nm with a μQuant Biomolecular Spectrophotometer from Bio-Tek Instruments Inc. (Winooski, Vt.). Independent control studies were conducted using 1% and 10% FBS medium.
(In general: Tetrazolium dyes change colour on reduction, which living cells bring about.)

A short description of data set [2]: Overall health and toxicity of TRAMP mice on DIM diet. The format is in vivo. Here is the method:
DIM was obtained from Sigma-Aldrich (St. Louis, Mo., U.S.A.). MN-76A diets containing 1% DIM were prepared by Research Diets Inc. (New Brunswick, N.J., U.S.A.) and stored at −20° C. The dose was chosen based in part on studies reported previously Anderton et al., Drug Metab Dispos. 2004; 32: 632-8; and Xue et al., J Nutr Biochem. 2008; 19: 336-44). In our present study, 1% DIM was well-tolerated with these TRAMP mice. The control TRAMP males (n=19) received A1N-76A diets throughout the experiment while the treated TRAMP males received 1% DIM diet starting from eight weeks of age (n=9) as Group 1 (D-G1) and Group 2 (D-G2) starting from twelve weeks of age (n=8) (FIG. 12A). Fresh diets were added to the cages twice weekly.
TRAMP males were weighed weekly and the overall health of the animals was monitored on a regular basis. All mice were sacrificed at the age of 24 weeks by carbon dioxide euthanasia and the genitourinary apparatus (GU) consisting of the seminal vesicles, prostate, and bladder were isolated for further analyses (FIG. 12B).
The overall health of all the mice was monitored during the study period and found to be in good health. All mice were weighed and checked weekly during the course of this study.

The test system of data set [3] is DNMT1. The experiment in a line: Western blot in TRAMP C1 cells. The format is cell-based, mouse. Here is the method:
(§1) The DIM used in the study contains approximately 98% of DIM purchased from Sigma-Aldrich t St. Louis, Mo., USA), TRAMP C1 cells (provided by Dr. Barbara Foster, Department of Pharmacology and Therapeutics, Roswell Park Cancer institute, Buffalo. NY), originally derived from TRAMP prostate tumor, were cultured in Dulbecco's Modified Eagle's Medium (Invitrogen Corp., Carlsbad, Calif. U.S.A.) supplemented with 10% (V/V) fetal bovine serum (FBS) (Invitrogen Corp., Grand Island, N.Y., U.S.A.), penicillin 100 U/ml, and streptomycin 100 μg/ml (Invitrogen Corp., Grand Island, N.Y., U.S.A.), Cells were maintained in a humidified incubator with 5% CO2 at 37° C. Cells were seeded in 10 cm plates for 24 h and then treated with 0.1% DMSO (control) or different concentrations of DIM in 1% FBS containing medium for 5 days. The medium was changed every 2 days (20), The TRAMP C1 cells or dorso-lateral prostate tissues collected from treated and control groups were pooled and homogenized with RIPA buffer (Cell Signaling Technology, Danvers, Mass., U.S.A.) and 10 μg/ml protease inhibitor cocktail (EMD Chemicals, Philadelphia, Pa., U.S.A.). Protein (20 μg) was loaded onto 4-15% SDS-PAGE (Bio-Rad Laboratories, Hercules, Calif., U.S.A.). After separation by SDS-PAGE, the protein was transferred onto nitrocellulose membrane (Millipore Corp., Billerica, Mass., U.S.A.), and then was blocked in 5% bovine serum albumin (BSA) (Fisher Scientific, Fair Law, J. U.S.A.) in tris buffer saline tween-20 (TBST) solution for 1 h. Membranes were probed using the different mono- or polyclonal-antibodies (1:1000) overnight at 4″C. Blots were washed with TBST solution for 15 min 4 times and incubated with the respective secondary antibodies for 1 hr. After washing min 4 times with TBST solution, the immunoreactive bands were determined by adding SuperSignal West Femto mix (1:1 mix of stable peroxide buffer and luminol/enhancer solution (Thermo Scientific, Rockford, Ill., U.S.A.) to detect immunoreactive bands. The bands were visualized and quantified by BioRad ChemiDoc XRS system (Hercules, Calif., U.S.A.). The primary antibodies used were β-actin, Nrf2, NQO1 (Santa Cruz Biotechnology, Santa Cruz, Calif., U.S.A.), HDAC1, HDAC2, HDAC3, HDAC4 (Cell Signaling Technology Inc., Danvers Mass., U.S.A.), HDAC8 (Proteintech Group Inc., Chicago, Ill., U.S.A.) and DNMT1, DNMT3a, DNMT3b (Imgenex, San Diego, Calif., U.S.A.). The secondary antibodies used were goat polyclonal IgG for β-actin and NQO1, rabbit polyclonal IgG for Nrf2, HDAC1, HDAC2, HDAC3, HDAC4 and HDAC8, and mouse polyclonal IgG for DNMT1, DNMT3a, DNMT3b (Santa Cruz Biotechnology, Santa Cruz, Calif., U.S.A.),
For orientation: In western blotting, separated proteins are transferred to a membrane and probed.

Data set [4] concerns DNMT3b. Briefly: Western blot in TRAMP C1 cells. In kind it is cell-based, mouse. Here is the method:
as §1

Data set [5] deals with HDAC2. The experiment in a line: Western blot in TRAMP C1 cells. In kind it is cell-based, mouse. Here is the method:
as §1

Data set [6] relates to HDAC3. Briefly: Western blot in TRAMP C1 cells. The format is cell-based, mouse. Here is the method: as §1
The subject of data set [7] is NQO1. The experiment in a line: Western blot in TRAMP C1 cells. The format is cell-based, mouse. Here is the method:
as §1

Data set [8] relates to Nrf2. Briefly: Western blot in TRAMP C1 cells. The format is cell-based, mouse. The method, then:
as §1

In the case of `c1ccc2c(Cc3c[nH]c4ccccc34)c[nH]c2c1` [DIM, 3,3′-diindolylmethane], the IC50 in data set [1] (HepG2C8, 1% FBS medium, read-out: cell viability inhibitory concentrations (IC50)) was 51 µM. For the same molecule, the IC50 in data set [1] (HepG2C8, 10% FBS medium (data not shown), read-out: cell viability IC50) is around 85 µM. For the same molecule, the “weights of liver, kidney and spleen” value in data set [2] (1% DIM diet, at sacrifice) was “no significant change”. Further, the body weights result in data set [2] (1% DIM diet, throughout the study period) is listed as “No significant change”. Further, in data set [2] (mouse, in vivo), the signs of toxicity result is given as “no specific observable sign of toxicity” and the tolerability result is listed as “well-tolerated”. Besides, the DNMT1 protein level result in data set [3] is recorded as “suppressed”. For the same molecule, in data set [4], the DNMT3b protein level result is given as “suppressed”. Further, the HDAC2 protein expression result in data set [5] is reported as “suppress”. Besides, the HDAC3 protein expression entry in data set [6] is “suppress”. The NQO1 protein levels entry in data set [7] is “significantly induced”. Besides, the Nrf2 protein levels entry in data set [8] is on record as “significantly induced”.
